# Patent US20170127675A1, “COMPOSITIONS AND METHODS FOR CONTROLLING INSECT POPULATIONS” (OLFACTOR LABORATORIES, INC., priority 2014, published 2017)
# Where a name gives a salt, the structure may show the parent alone.
# Test system: mosquitoes
# Assay: Attractive toxic sugar assay
# Type: in vivo
# Settings: after three days, dead / total mosquitoes
# Protocol: Experiments were carried out to examine the lethality of compounds of the present invention using an attractive toxic sugar assay. These experiments were carried out in 6 groups according to Table 3. […] The experimental room was conditioned with 75% humidity or higher. Experimental cages were prepared by adding paper towels to the cage bottoms. Cages of mosquitoes were collected (about 25 males and about 25 females per cage), one cage for each sugar bait being tested with an extra cage to use as a sucrose-only control. […] Feeding cups were prepared with 10 ml of experimental sugar bait to a cup. In some experiments, blue food coloring was added to verify sugar consumption in the frass. Bait cups were mixed by gentle swirling and wicks were added through the top. Control bait cups received about 10 ml of prepared 10% sucrose solution (except where otherwise indicated). Heat, humidity as well as humidifier water content were checked each day. Cages were examined daily for dead mosquitoes. The number of dead mosquitoes per gender was recorded each day. Frass content was examined daily and compared with that of sucrose control. After three days, final observations were made and live mosquitoes were removed from each experimental cage and placed into cups for examination under the dissecting scope to determine whether or not female mosquitoes had fed. Once feeding females had been determined for populations from each cage, cups were frozen and discarded. Dead mosquitoes in each cage were counted and the sex of each determined. The relative frass content per cage was compared to that of the sucrose control cage. […] Percent (%) lethality was calculated for each treatment group by dividing the total (male and female) number of dead mosquitoes by the total number of mosquitoes for each.
# [1] = sugar conc. 0.10%, about 25 male and 25 female mosquitoes per cage
Compound,% Lethality [1] [%],% Lethality (sugar conc. 0.50%) [%]
"OC[C@H]1O[C@@H](O[C@H]2O[C@H](CO)[C@@H](O)[C@H](O)[C@H]2O)[C@H](O)[C@@H](O)[C@@H]1O [alpha,beta-trehalose]",56.2,–
CO[C@@H]1O[C@H](CO)[C@H](O)[C@H](O)[C@H]1O [methyl-beta-D-galactopyranoside],65.9,43
n-acetyl allolactosamine,44,–
OC[C@H]1O[C@H](OCC2O[C@@H](O)[C@H](O)[C@@H](O)[C@@H]2O)[C@H](O)[C@@H](O)[C@H]1O (stereo partly drawn) [melibiose],64.4,–
O.O.O.O.O.OC[C@H]1O[C@H](OC[C@H]2O[C@H](O[C@]3(CO)O[C@H](CO)[C@@H](O)[C@@H]3O)[C@H](O)[C@@H](O)[C@@H]2O)[C@H](O)[C@@H](O)[C@H]1O [D-(+)-raffinose pentahydrate],38.8,–
C[C@@H]1O[C@@H](OC[C@H]2O[C@@H](Oc3c(-c4ccc(O)c(O)c4)oc4cc(O)cc(O)c4c3=O)[C@H](O)[C@@H](O)[C@@H]2O)[C@H](O)[C@H](O)[C@H]1O [rutin hydrate],58,45
O=C(CO)[C@@H](O[C@H]1O[C@H](CO)[C@@H](O)[C@H](O)[C@H]1O)[C@H](O)[C@H](O)CO [D-(+)-turanose],66,29
CC1(C)[C@@H](O[C@H]2O[C@H](C(=O)O)[C@@H](O)[C@H](O)[C@H]2O[C@@H]2O[C@H](C(=O)O)[C@@H](O)[C@H](O)[C@H]2O)CC[C@]2(C)[C@H]3C(=O)C=C4[C@@H]5C[C@@](C)(C(=O)O)CC[C@]5(C)CC[C@@]4(C)[C@]3(C)CC[C@@H]12 [glycyrrhizic acid ammonium salt],68.3,–
sucrose octasulfate aluminum complex,39.6,–
